Key:
human salivary α-amylase [1] = biological target: T1, human salivary α-amylase (Homo sapiens, UniProt P0DUB6); assay: enzyme inhibition with amylose substrate, DNS readout after SPE; very weak; format: biochemical
T1 construct: gene AMY1A; human salivary α-amylase type IX-A (Sigma-Aldrich)
T1 sequence (P0DUB6 16-511): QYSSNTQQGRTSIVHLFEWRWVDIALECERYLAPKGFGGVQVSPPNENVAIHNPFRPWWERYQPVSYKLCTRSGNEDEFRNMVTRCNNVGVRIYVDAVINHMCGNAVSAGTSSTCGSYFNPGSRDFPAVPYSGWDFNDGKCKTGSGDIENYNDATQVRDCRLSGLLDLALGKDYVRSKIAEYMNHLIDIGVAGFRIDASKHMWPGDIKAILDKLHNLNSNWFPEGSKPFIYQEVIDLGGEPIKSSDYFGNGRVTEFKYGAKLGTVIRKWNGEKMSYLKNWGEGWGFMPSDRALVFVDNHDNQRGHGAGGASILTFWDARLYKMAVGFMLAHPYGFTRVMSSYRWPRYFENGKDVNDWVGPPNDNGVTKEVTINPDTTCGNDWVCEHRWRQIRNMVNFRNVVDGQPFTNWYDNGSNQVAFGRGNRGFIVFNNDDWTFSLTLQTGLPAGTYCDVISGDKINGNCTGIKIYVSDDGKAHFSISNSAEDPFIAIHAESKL

human salivary α-amylase [2] = biological target: T1, human salivary α-amylase; assay: enzyme inhibition with amylose substrate, DNS readout after SPE; plateau at […] inhibition at […]; format: biochemical

inhibition at 5000 µM (human salivary α-amylase [1]) [%] | inhibition at 600 µM (human salivary α-amylase [2]) [%] | SMILES
20.5 |  | O=C(/C=C/c1ccc(O)c(O)c1)O[C@@H]1C[C@](O)(C(=O)O)C[C@@H](O)[C@H]1O [5-CQA, 5-caffeoylquinic acid]
 | 32 | COc1ccc(C=CC(=O)O)cc1OC [3,4-dimethoxycinnamic acid]

Reference: paper PMC6143438, “Chlorogenic and phenolic acids are only very weak inhibitors of human salivary α-amylase and rat intestinal maltase activities” (Food Research International (Ottawa, Ont.), 2018)
